# Laboratory results from patent US20140106440A1, “ENHANCED ENZYMATIC CO2 CAPTURE TECHNIQUES ACCORDING TO SOLUTION PKA, TEMPERATURE AND/OR ENZYME CHARACTER” (CO2 SOLUTIONS INC., priority 2011, published 2014).
# Where “and” joins values, the source holds several entries; their conditions need not be identical. Equal values may be shown once. Read-outs that look alike come from different tables or passages of the source.
# Tests used:
# [1] = Second-order kinetic rate constant of the reaction between alkanolamine and CO2 (no enzyme); format: physicochemical
# [2] = forward reaction with CO2; 2 kmol/m^3 MDEA solution at 298 K; cited from earlier work
# [3] = cited from earlier work
smiles,measurement,setting,value
"CC(O)CN(CC(C)O)CC(C)O (stereo not shown) [TIPA, tri-isopropanolamine]","k2, second-order kinetic rate constant of the reaction between amine and CO2",[1],1.02 m^3 kmol^−1 s^−1 and 0.79 m^3 kmol^−1 s^−1
"O [H2O, water]",1st order rate constant,[2],0.026 s⁻¹
"O [OH^−, hydroxide]",1st order rate constant,[2],23.8 s⁻¹
same,2nd order rate constant,[2],8.35 m^3mol^−1s^−1
"CN(C)CCO [DMMEA, dimethylethanolamine]","k2, second-order kinetic rate constant of the reaction between amine and CO2",[1]; amine concentration 1.0 kmol m^−3,19.5 m^3 kmol^−1 s^−1
same,"k2, second-order kinetic rate constant of the reaction between amine and CO2",[1]; amine concentration 2.0 kmol m^−3,18.8 m^3 kmol^−1 s^−1
same,pKa,[3]; Table 3,9.2
same,pKa,[3]; Table 4,9.2
same,pKa,[3]; Table 14,9.22
"CCN(CC)CCO [DEMEA, diethylethanolamine]","k2, second-order kinetic rate constant of the reaction between amine and CO2",[1],33.0 m^3 kmol^−1 s^−1 and 35.5 m^3 kmol^−1 s^−1 and 33.1 m^3 kmol^−1 s^−1
